Reference: publication PMC9278454, “Dyhidro-β-agarofurans natural and synthetic as acetylcholinesterase and COX inhibitors: interaction with the peripheral anionic site (AChE-PAS), and anti-inflammatory potentials” (Journal of Enzyme Inhibition and Medicinal Chemistry, 2022)
Where two headings read alike, the source gives them in different places.

What was measured:
[1] = biological target: T1, AChE (Electrophorus electricus, UniProt O42275); assay: biochemical
[2] = biological target: T2, ovine COX-1 (Ovis aries, UniProt P05979); assay: COX Inhibitor Screening Assay kit, COX-1; assay type: biochemical
T2 construct: purchased 560131
T2 sequence (P05979 25-600): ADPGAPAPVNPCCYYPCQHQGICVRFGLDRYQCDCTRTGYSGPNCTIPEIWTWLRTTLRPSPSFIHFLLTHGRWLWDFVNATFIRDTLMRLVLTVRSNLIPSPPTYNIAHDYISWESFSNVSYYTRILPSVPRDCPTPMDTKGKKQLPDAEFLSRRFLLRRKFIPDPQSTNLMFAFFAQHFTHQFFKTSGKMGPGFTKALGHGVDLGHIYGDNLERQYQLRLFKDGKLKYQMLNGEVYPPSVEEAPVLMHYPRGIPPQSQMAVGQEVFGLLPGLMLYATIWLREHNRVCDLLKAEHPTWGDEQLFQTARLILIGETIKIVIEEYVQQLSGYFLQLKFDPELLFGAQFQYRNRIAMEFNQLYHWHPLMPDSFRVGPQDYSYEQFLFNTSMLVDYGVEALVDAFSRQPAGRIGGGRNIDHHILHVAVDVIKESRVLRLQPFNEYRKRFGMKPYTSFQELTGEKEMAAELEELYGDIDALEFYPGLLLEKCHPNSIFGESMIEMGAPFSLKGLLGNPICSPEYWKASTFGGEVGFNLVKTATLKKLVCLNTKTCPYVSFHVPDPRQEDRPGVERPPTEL

[3] = biological target: PAS of EeAChE (Electrophorus electricus, UniProt O42275); assay: Propidium iodide displacement from the PAS of AChE (fluorescence); assay type: binding; details: EeAChE 7 µM, propidium iodide 8 µM; for % Displacement of propidium iodide 290 µM: compound 290 µM; for % Displacement of propidium iodide 340 µM: compound 340 µM
Chain of PAS of EeAChE (O42275 24-633): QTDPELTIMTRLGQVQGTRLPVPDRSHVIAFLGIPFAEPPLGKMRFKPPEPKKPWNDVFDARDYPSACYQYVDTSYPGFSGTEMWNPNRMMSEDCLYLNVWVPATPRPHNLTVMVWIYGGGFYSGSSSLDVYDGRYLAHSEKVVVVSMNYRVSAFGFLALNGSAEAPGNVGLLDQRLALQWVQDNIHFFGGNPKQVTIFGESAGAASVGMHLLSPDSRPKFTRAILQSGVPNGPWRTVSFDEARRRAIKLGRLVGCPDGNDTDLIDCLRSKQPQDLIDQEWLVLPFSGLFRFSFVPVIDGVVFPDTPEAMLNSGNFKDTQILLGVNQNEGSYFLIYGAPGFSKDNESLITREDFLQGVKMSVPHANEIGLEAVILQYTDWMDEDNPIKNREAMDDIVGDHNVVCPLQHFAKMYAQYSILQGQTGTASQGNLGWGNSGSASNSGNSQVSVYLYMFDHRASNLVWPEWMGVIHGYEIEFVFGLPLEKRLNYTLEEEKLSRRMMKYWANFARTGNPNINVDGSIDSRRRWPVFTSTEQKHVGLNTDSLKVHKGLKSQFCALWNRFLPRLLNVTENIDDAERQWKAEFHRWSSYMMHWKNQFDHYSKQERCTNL
Experimental: The ability of compounds to competitively displace propidium iodide was evaluated by a fluorescence method[43]. […] Donepezil was used as reference compound. The blank contained propidium iodide of the same concentration in 1 mM Tris-HCl buffer pH 8.0. The measurements were carried out in triplicate on a microplate reader Perkin Elmer VictorX2 (Perkin Elmer, Singapur).

[4] = biological target: T3, human recombinant COX-2 (Homo sapiens, UniProt P35354); assay: biochemical; assay type: biochemical; details: for IC50: average of 3 independent runs, read-out: COX-2 IC50 (µM)±SE
T3 construct: purchased 560131
T3 sequence (P35354 18-604): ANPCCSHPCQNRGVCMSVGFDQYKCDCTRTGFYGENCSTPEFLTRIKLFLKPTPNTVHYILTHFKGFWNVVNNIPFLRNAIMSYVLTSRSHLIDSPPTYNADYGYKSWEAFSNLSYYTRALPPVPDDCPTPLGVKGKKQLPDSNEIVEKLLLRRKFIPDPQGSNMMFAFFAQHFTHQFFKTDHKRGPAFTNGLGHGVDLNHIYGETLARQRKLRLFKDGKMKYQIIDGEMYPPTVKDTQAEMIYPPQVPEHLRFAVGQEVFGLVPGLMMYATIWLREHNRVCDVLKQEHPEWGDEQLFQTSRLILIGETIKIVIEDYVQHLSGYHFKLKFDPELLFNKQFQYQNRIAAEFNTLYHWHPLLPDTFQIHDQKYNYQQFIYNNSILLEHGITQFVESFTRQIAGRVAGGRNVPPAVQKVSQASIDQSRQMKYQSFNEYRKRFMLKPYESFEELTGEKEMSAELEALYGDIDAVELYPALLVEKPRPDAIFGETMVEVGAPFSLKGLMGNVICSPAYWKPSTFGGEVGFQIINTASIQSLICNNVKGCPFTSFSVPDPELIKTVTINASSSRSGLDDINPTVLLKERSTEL

[5] = tested on: Tc-AChE; assay: Kinetic characterisation of AChE inhibition (Lineweaver-Burk); assay type: biochemical, Torpedo californica
Experimental: The rate of enzyme activity was measured at eight different concentrations of substrate acetylthiocholine iodide (ATC).
Data analysis was carried out with SigmaPlot v10.0.

[6] = biological target: T1, AChE; details: read-out: AChE IC50 (µM)±SE; average of 3 independent runs
[7] = selectivity index, COX-1 IC50 / COX-2 IC50
[8] = read-out: COX-1 IC50 (µM)±SE, average of 3 independent runs

T1 sequence (O42275 24-633): as the sequence (O42275 24-633) above

| SMILES | IC50 [1] | IC50 [2] | % Displacement of propidium iodide 290 µM [3] | % Displacement of propidium iodide 340 µM [3] | SI(COX-1/COX-2) [4] | IC50 [4] | Mode of AChE inhibition ([5]; Lineweaver-Burk plots, eight concentrations of substrate ATC) | Km ([5]; unchanged at increasing concentrations of the inhibitor, substrate ATC) | SI(COX-1/COX-2) [4, 7] | IC50 [2, 8] | IC50 [6] |
| --- | --- | --- | --- | --- | --- | --- | --- | --- | --- | --- | --- |
| Cc1ccc(C(C)C)cc1O [Carvacrol, reference compound] | 45 ± 0.031 µM | – | – | – | – | – | – | – | – | – | – |
| CC1=CCC[C@@]2(C)CC[C@@H]3C[C@]12OC3(C)C [Compound 3, α-agarofuran] | 26 ± 0.012 µM | 11.36 ± 0.035 µM | 12.2 ± 0.2% | 15.8 ± 0.5% | 66.82 | 0.17 ± 0.002 µM | – | – | – | – | – |
| CC1(C)OC23CC1CCC2(C)CCC(O)C3(C)O (stereo not drawn) [Compound 4, 3α,4α-dihydroxydihydro-β-agarofuran] | 17 ± 0.016 µM | 14.21 ± 0.035 µM | 13.9 ± 0.3% | 17.6 ± 0.5% | 37.39 | 0.38 ± 0.007 µM | non-competitive inhibitor | 110 µM | – | – | – |
| CC(=O)OC1CCC2(C)CCC3CC2(OC3(C)C)C1(C)O (stereo not drawn) [Compound 5, 3α-acetoxy-4α-hydroxydhydro-β-agarofuran] | 43 ± 0.015 µM | 13.08 ± 0.02 µM | – | – | 32.7 | 0.4 ± 0.0014 µM | – | – | – | – | – |
| CC1(C)OC23CC1CCC2(C)CCC(OC(=O)c1ccco1)C3CO (stereo not drawn) [Compound 6, 3α-furoyloxy-15-hydroxydihydro-β-agarofuran] | 32 ± 0.006 µM | 12.69 ± 0.035 µM | – | – | 97.61 | 0.13 ± 0.003 µM | – | – | – | – | – |
| CC1(C)OC23CC1CCC2(C)CCC(OC(=O)c1ccccc1)C3CO (stereo not drawn) [Compound 7] | – | 11.98 ± 0.042 µM | – | – | – | 0.21 ± 0.008 µM | – | – | 57.05 | – | – |
| CC(=O)O[C@H]1CC[C@](C)(O)[C@]23OC(C)(C)[C@H](C[C@H](OC(=O)c4ccoc4)[C@]12C)[C@H]3OC(=O)c1ccoc1 [Compound 8, 1α-Acetoxy-6β,9β-difuroyloxy-4β-hydroxydihydro-β-agarofuran] | – | – | – | – | 264.75 | 0.04 ± 0.007 µM | – | – | – | 10.59 ± 0.02 µM | 738 ± 0.007 µM |
| CC(=O)OC[C@@]12[C@@H](OC(C)=O)CC[C@@H](C)[C@]13OC(C)(C)[C@H](C[C@@H]2OC(=O)c1ccccc1)[C@H]3OC(C)=O [Compound 9, 1α,6β,14-triacetoxy-9β-benzyloxydihydro-β-agarofuran] | 695 ± 0.001 µM | 8.69 ± 0.03 µM | – | – | 124.14 | 0.07 ± 0.004 µM | – | – | – | – | – |
| CC(=O)O[C@@H]1[C@@H]2[C@@H](OC(C)=O)[C@]3(OC2(C)C)[C@H](C)CC[C@H](O)[C@@]3(C)[C@H]1OC(=O)c1ccoc1 [Compound 10, 6β,8α-diacetoxy-9β-furoyloxy-1α-hydroxydihydro-β-agarofuran] | – | – | – | – | 47.37 | 0.29 ± 0.0003 µM | – | – | – | 13.74 ± 0.1 µM | 740 ± 0.045 µM |
| CC(=O)O[C@@H]1[C@H](OC(=O)c2ccccc2)[C@@]2(C)[C@@H](OC(=O)c3ccccc3)C[C@@H]3[C@@H](OC(C)=O)[C@]2(OC3(C)C)[C@@](C)(O)[C@H]1OC(C)=O [Compound 11] | 30 ± 0.06 µM | 13.08 ± 0.02 µM | 12.1 ± 0.7% | 13.4 ± 0.2% | 145.33 | 0.09 ± 0.005 µM | – | – | – | – | – |
| CC(=O)OC[C@]12[C@@H](OC(=O)c3ccccc3)[C@H](OC(C)=O)[C@@H]3[C@@H](OC(=O)c4ccccc4)[C@]1(OC3(C)C)[C@@](C)(O)[C@H](OC(C)=O)[C@H](OC(C)=O)[C@@H]2OC(C)=O [Compound 12, 1α,2α,3α,8α,14-pentaacetoxy-6β,9β-dibenzyloxy-4β-hydroxidihydro-β-agarofuran] | – | 14.2 ± 0.2 µM | – | – | – | 0.84 ± 0.012 µM | – | – | 16.92 | – | – |
| CC(=O)O[C@@H]1[C@H]2[C@@H](O)[C@H](OC(=O)c3ccccc3)[C@]3(C)[C@@H](O)CC[C@@H](C)[C@@]13OC2(C)C [Compound 13] | 500 ± 0.03 µM | 11.36 ± 0.035 µM | – | – | 103.27 | 0.11 ± 0.007 µM | – | – | – | – | – |
